Marks after values point to notes of the source that are not given here. Where no end group is shown, it is not given here.
Assays:
[1] = test system: CD34^+ cells; experiment: Cell phenotyping of CD34+ liquid cultures by flow cytometry (CD34, CD33, CD15, CD41); assay type: cell-based, human; settings: for MK (CD41^+) fold expansion / Myeloid (CD33^+) fold expansion: 2-week primary cultures of CD34+ cells from 1 to 3 individuals, ± SEM where noted
Source text: Cell Source: UCB was collected, following informed consent of the parents and with the approval of the Sourasky Medical Center Ethics Committee, as previously described [Grisaru et al. (1999a) Am. J. Obstet. Gynecol, 180, 1240–1243]. Following 1:1 (v/v) dilution in Iscove's modified Dulbecco medium (IMDM, Beit Haemek, Israel), mononuclear cells were separated using 3% gelatin (Difco, Detroit, Mich.) and Ficoll-Hypaque gradients (<1.077 g/ml; Pharmacia, Uppsala, Sweden) [Pick et al. (1998) Br. J. Haematol. 103, 639–50]. CD34^+ cells were enriched using CD34 immunoglobulin-coated magnetic beads (CD34 progenitor cell selection system, Dynal, Norway).CD34^+ cells analysis was performed by flow cytometry (Becton Dickinson Immunocytochemistry System Inc., San Jose, Calif.), using CD34-PE (Becton Dickinson Immunocytometry System, Inc.) and CD45-FITC (Dako, Glostrup, Denmark) monoclonal antibodies. […] Liquid Cultures: UCB CD34^+ cells were set for liquid cultures at a concentration of 10^5/mL in IMDM, containing 10% autologous plasma, 2 mM L-glutamine (Sigma Chemical Co., St Louis, Mo.), penicillin ([…]), streptomycin ([…]), amphotericin B (2×10^−5 M) (Sigma Chemical Co.), and heparin (20 IU/mL, Gibco, Grand Island, N.Y.), all in a fully humidified atmosphere at 37° C. and 5% CO2. The following elements were added where noted: • 1. […] Endothlial Growth factors: Epidermal growth factor (EGF 10 ng/ml, Sigma Chemical Co.), basic Fibroblast growth factor (bFGF 20 ng/ml, Sigma Chemical Co.) incubated in a serum free medium (SFM) for 48 hr. • 3. Stress mimicking conditions: Hydrocortisone sodium succinate (Abic Ltd., Netanya, Israel) at concentrations equivalent to normal, intermediate and stress serum cortisol levels (0.1, 0.6 and 1.2 μM, respectively (De Vroede et al., Arch. Des. […] Antisense oligonucleotides: 3′-terminal 2′-O-Methylated 15- and 20-mer oligodeoxynucleotides in the antisense (AS) orientation, targeted against the common sequence domain in human AChEmRNA and BuChE mRNA, as control, […], as detailed elsewhere [Grisaru et al. (1999b) Mol. Cell. Biol. 19, 788–95]. • 5. AChE C-terminal peptides: The following C-terminal peptides of the AChE synaptic (ASP, also denoted SEQ ID: No. 2) and readthrough (ARP, also denoted SEQ ID: No. 1) isoforms were synthesized using a 433A peptide synthesizer (PE Applied Biosystems, Inc., Norwalk, Conn.). • ASP: 1-[…]-40, also denoted as SEQ ID: No. 2. • ARP: 1-[…]-26, also denoted as SEQ ID: No. 1.
Culture Analyses: Twenty-four hr liquid cultures served for cytochemical staining, in situ hybridization, and cell proliferation assay by 5-bromo-2′-deoxy-Uridine (BrdU) incorporation [Grisaru et al. (1999b) id ibid.]. Twenty-eight day liquid cultures were sampled every 6–8 days for viable cell counting (using trypan blue dye exclusion), cell phenotyping (CD34^+, CD33^+ and CD41^+ quantification using flow cytometry, with CD34-PE, CD33-FITC (Immunotech/Coulter, Hialeah, Fla.), CD41-FITC (Immunoquality Products, Groningen, Netherlands) and CD45-FITC monoclonal antibodies), and growth of progenitor colony (granulocyte-macrophage and megakaryocytic), using previously described techniques (Pick et al. (1998) id ibid.). […] 11, 1049–57]. Nuclear staining w with 4′,6-diamidino-2- phenylindole [DAPI, see e.g., Peterson et al. (1999) Genetics 152, 427–439].

[2] = test system: CD34^+ cells; experiment: Viable cell expansion in CD34+ liquid cultures (trypan blue exclusion); assay type: cell-based, human; settings: day 14; seeded at 50,000 cells/well; ARP 2 nM, cortisol 1.2 μM, ASP 2 nM, SCF 50 ng/ml, AS1 20 pM, PBAN 2 nM
Source text: Cell Source: UCB was collected, following informed consent of the parents and with the approval of the Sourasky Medical Center Ethics Committee, as previously described [Grisaru et al. (1999a) Am. J. Obstet. Gynecol, 180, 1240–1243]. Following 1:1 (v/v) dilution in Iscove's modified Dulbecco medium (IMDM, Beit Haemek, Israel), mononuclear cells were separated using 3% gelatin (Difco, Detroit, Mich.) and Ficoll-Hypaque gradients (<1.077 g/ml; Pharmacia, Uppsala, Sweden) [Pick et al. (1998) Br. J. Haematol. 103, 639–50]. CD34^+ cells were enriched using CD34 immunoglobulin-coated magnetic beads (CD34 progenitor cell selection system, Dynal, Norway).CD34^+ cells analysis was performed by flow cytometry (Becton Dickinson Immunocytochemistry System Inc., San Jose, Calif.), using CD34-PE (Becton Dickinson Immunocytometry System, Inc.) and CD45-FITC (Dako, Glostrup, Denmark) monoclonal antibodies. […] Liquid Cultures: UCB CD34^+ cells were set for liquid cultures at a concentration of 10^5/mL in IMDM, containing 10% autologous plasma, 2 mM L-glutamine (Sigma Chemical Co., St Louis, Mo.), penicillin ([…]), streptomycin ([…]), amphotericin B (2×10^−5 M) (Sigma Chemical Co.), and heparin (20 IU/mL, Gibco, Grand Island, N.Y.), all in a fully humidified atmosphere at 37° C. and 5% CO2. The following elements were added where noted: • 1. Hematopoietic growth factors: Interleukin 3 (IL3, 5 ng/mL, Immunex, Seattle, Wash.), interleukin 6 (IL6, 50 ng/mL, R&D Systems, Minneapolis, Minn.), TPO (1 ng/mL, R&D Systems), stem cell factor (SCF, 10 ng/mL, R&D Systems), FLT-3 ligand (FLT3, 50 ng/mL, R&D Systems), granulocyte-macrophage colony stimulating factor (GM-CSF, 50 ng/mL, Biogenesis Ltd, Bournemouth, UK) and combinations of the above, for 24 hr to 28 days (supplemented every 4 days). • 2. Endothlial Growth factors: Epidermal growth factor (EGF 10 ng/ml, Sigma Chemical Co.), basic Fibroblast growth factor (bFGF 20 ng/ml, Sigma Chemical Co.) incubated in a serum free medium (SFM) for 48 hr. • 3. […] AChE C-terminal peptides: The following C-terminal peptides of the AChE synaptic (ASP, also denoted SEQ ID: No. 2) and readthrough (ARP, also denoted SEQ ID: No. 1) isoforms were synthesized using a 433A peptide synthesizer (PE Applied Biosystems, Inc., Norwalk, Conn.). • ASP: 1-[…]-40, also denoted as SEQ ID: No. 2. • ARP: 1-[…]-26, also denoted as SEQ ID: No. 1. […]

[3] = test system: FVB/N adult mice; experiment: Biochemical and physiological male fertility correlates after ARP injection; assay type: in vivo, mouse
Source text: Culture Analyses: Twenty-four hr liquid cultures served for cytochemical staining, in situ hybridization, and cell proliferation assay by 5-bromo-2′-deoxy-Uridine (BrdU) incorporation [Grisaru et al. (1999b) id ibid.]. Twenty-eight day liquid cultures were sampled every 6–8 days for viable cell counting (using trypan blue dye exclusion), cell phenotyping (CD34^+, CD33^+ and CD41^+ quantification using flow cytometry, with CD34-PE, CD33-FITC (Immunotech/Coulter, Hialeah, Fla.), CD41-FITC (Immunoquality Products, Groningen, Netherlands) and CD45-FITC monoclonal antibodies), and growth of progenitor colony (granulocyte-macrophage and megakaryocytic), using previously described techniques (Pick et al. (1998) id ibid.). Cytochemical Staining: Staining of AChE activity was essentially as detailed elsewhere [Grisaru et al. (1999b) id ibid], on non-fixed liquid cultures following 300×g centrifugation on collagen-coated cover slips placed on the bottom of the culture well, in the presence of 10^−5 M iso-OMPA (ISO) or BW284C51 (BW), selective inhibitors of BuChE and AChE, respectively [see also Keymer et al.(1999) Eur. J. Neurosci. 11, 1049–57]. Nuclear staining w with 4′,6-diamidino-2- phenylindole [DAPI, see e.g., Peterson et al. (1999) Genetics 152, 427–439]. Animals and Tissue Collection: Male FVB/N mice (2–6 months old) were sacrificed 24 hr following 4 successive days of a forced swim session as detailed [Kaufer et al. (1998) id ibid.], or a single injection of ARP (34 nmol/kg weight), or phosphate buffer (PB) for control. ARP, a 26 amino acid residue peptide synthesized according to the C-terminal sequence of human AChE-R [Grisaru et al. (1999b) id ibid.] was HPLC purified and mass-spectrometry analysed for purity. Control naïve mice and hAChE-R transgenics were sacrificed with no prior treatment. Blood samples were allowed to clot 1 hr at room temperature and overnight at 4° C., followed by centrifugation and serum collection. Testes and seminal vesicles were excised and weighed, fixed in 4% paraformaldehyde or Bouin's fixative for histological staining or kept at −70° C. for protein extraction. Sperm cells were collected from one cauda epididymis shredded in 1 ml saline. Evaluation of Serum Corticosterone Levels: concentrations were determined by radioimmunoassay.
Epididymal sperm motility was assessed by visually determining percent motile sperm. Sperm concentration was measured using the Makler chamber (company, city, state).
Detection of the AChE core protein and/or its variant C-terminal peptides was performed on 7 μm thick paraffin embedded testis sections with either anti-ASP (C-16; Santa Cruz Biotechnology, Santa Cruz, Calif.) or anti-ARP polyclonal antibodies [Sternfeld et al. (2000) id ibid.]. PCNA was detected using a dedicated staining kit (Zymed Laboratories, San-Francisco, Calif.); nuclear staining and counterstaining was with DAPI and hematoxylin, respectively (Sigma, St. Louis Mo.).
To determine the in vivo capacity of ARP to affect different biochemical and physiological male fertility properties, the effect of injection of ARP or chronic expression of AChE-R (AChE-R transgenic mice) on different parameters was examined.

[4] = test system: CD34^+ cells; experiment: BrdU incorporation into CD34+ cells (cell proliferation); assay type: cell-based, human; settings: GM-CSF alone, 16 hr
Source text: Cell Source: UCB was collected, following informed consent of the parents and with the approval of the Sourasky Medical Center Ethics Committee, as previously described [Grisaru et al. (1999a) Am. J. Obstet. Gynecol, 180, 1240–1243]. Following 1:1 (v/v) dilution in Iscove's modified Dulbecco medium (IMDM, Beit Haemek, Israel), mononuclear cells were separated using 3% gelatin (Difco, Detroit, Mich.) and Ficoll-Hypaque gradients (<1.077 g/ml; Pharmacia, Uppsala, Sweden) [Pick et al. (1998) Br. J. Haematol. 103, 639–50]. CD34^+ cells were enriched using CD34 immunoglobulin-coated magnetic beads (CD34 progenitor cell selection system, Dynal, Norway).CD34^+ cells analysis was performed by flow cytometry (Becton Dickinson Immunocytochemistry System Inc., San Jose, Calif.), using CD34-PE (Becton Dickinson Immunocytometry System, Inc.) and CD45-FITC (Dako, Glostrup, Denmark) monoclonal antibodies. […] Liquid Cultures: UCB CD34^+ cells were set for liquid cultures at a concentration of 10^5/mL in IMDM, containing 10% autologous plasma, 2 mM L-glutamine (Sigma Chemical Co., St Louis, Mo.), penicillin ([…]), streptomycin ([…]), amphotericin B (2×10^−5 M) (Sigma Chemical Co.), and heparin (20 IU/mL, Gibco, Grand Island, N.Y.), all in a fully humidified atmosphere at 37° C. and 5% CO2. The following elements were added where noted: • 1. Hematopoietic growth factors: Interleukin 3 (IL3, 5 ng/mL, Immunex, Seattle, Wash.), interleukin 6 (IL6, 50 ng/mL, R&D Systems, Minneapolis, Minn.), TPO (1 ng/mL, R&D Systems), stem cell factor (SCF, 10 ng/mL, R&D Systems), FLT-3 ligand (FLT3, 50 ng/mL, R&D Systems), granulocyte-macrophage colony stimulating factor (GM-CSF, 50 ng/mL, Biogenesis Ltd, Bournemouth, UK) and combinations of the above, for 24 hr to 28 days (supplemented every 4 days). • 2. […] AChE C-terminal peptides: The following C-terminal peptides of the AChE synaptic (ASP, also denoted SEQ ID: No. 2) and readthrough (ARP, also denoted SEQ ID: No. 1) isoforms were synthesized using a 433A peptide synthesizer (PE Applied Biosystems, Inc., Norwalk, Conn.). • ASP: 1-[…]-40, also denoted as SEQ ID: No. 2. • ARP: 1-[…]-26, also denoted as SEQ ID: No. 1.
[…] Twenty-eight day liquid cultures were sampled every 6–8 days for viable cell counting (using trypan blue dye exclusion), cell phenotyping (CD34^+, CD33^+ and CD41^+ quantification using flow cytometry, with CD34-PE, CD33-FITC (Immunotech/Coulter, Hialeah, Fla.), CD41-FITC (Immunoquality Products, Groningen, Netherlands) and CD45-FITC monoclonal antibodies), and growth of progenitor colony (granulocyte-macrophage and megakaryocytic), using previously described techniques (Pick et al. (1998) id ibid.). […]

[5] = day 14, seeded at 50,000 cells/well, ARP 2 nM, cortisol 1.2 μM, ASP 2 nM, SCF 50 ng/ml, AS1 20 pM, PBAN 2 nM
[6] = 24-hr post i.p. injection of 34 nmol/Kg ARP, FVB/N adult male mice

## SCF
[1]
  MK (CD41^+) fold expansion: 0.30 ± 0.21 fold
  Myeloid (CD33^+) fold expansion: 3.90 fold
[1]; [5]
  CD33^+ (early myeloids): 69.0 cells per culture × 10^−3
  CD33^+ and CD15^+ (total myeloids): 72.0 cells per culture × 10^−3
  CD34^+ (early progenitors): 6.3 cells per culture × 10^−3
  CD41^+ (megakaryocytes): 2.6^b cells per culture × 10^−3
[2]
  Total viable cells: 118.0 cells per culture × 10^−3

## GMQGPAGSGWEEGSGSPPGVTPLFSP [ARP]
[3]; [6]
  seminal gland wt.: 10.79 ± 1.08 mg/gr weight
  sperm counts: 5.3 ± 1.2 cells/epididimis × 10^−6
  sperm, motile: 5 ± 1.7 % of total sperm cells
[3]; ARP injected mice
  sperm cell motility: significantly reduced motility
[3]; ARP-injected mice
  sperm counts compared with untreated FVB/N mice: lower

## GM-CSF
[4]
  BrdU incorporation into CD34+ cells: increased
[1]
  MK (CD41^+) fold expansion: 14.50 fold
  Myeloid (CD33^+) fold expansion: 1.35 fold

— patent US7067486B2, “Acetylcholinesterase-derived peptides and uses thereof” (priority 1999, dated 2006)
